Reference: patent publication US8394971B2, “Indole derivatives as selective androgen receptor modulators (SARMS)” (Janssen Pharmaceutica N.V., priority 2004, dated 2013)
Read-outs that look alike come from different tables or passages of the source.

What was measured:
[1] = target: T1, androgen receptor (adenovirus AdEasy+rAR in L929 cells) (Rattus norvegicus, UniProt P15207); assay: L929 Androgen Receptor Functional Assay, Adenovirus Transduction; assay type: cell-based; conditions: for % Activity: L929 agonist testing
T1 construct: expressed in transfected cells
T1 sequence (P15207 1-902): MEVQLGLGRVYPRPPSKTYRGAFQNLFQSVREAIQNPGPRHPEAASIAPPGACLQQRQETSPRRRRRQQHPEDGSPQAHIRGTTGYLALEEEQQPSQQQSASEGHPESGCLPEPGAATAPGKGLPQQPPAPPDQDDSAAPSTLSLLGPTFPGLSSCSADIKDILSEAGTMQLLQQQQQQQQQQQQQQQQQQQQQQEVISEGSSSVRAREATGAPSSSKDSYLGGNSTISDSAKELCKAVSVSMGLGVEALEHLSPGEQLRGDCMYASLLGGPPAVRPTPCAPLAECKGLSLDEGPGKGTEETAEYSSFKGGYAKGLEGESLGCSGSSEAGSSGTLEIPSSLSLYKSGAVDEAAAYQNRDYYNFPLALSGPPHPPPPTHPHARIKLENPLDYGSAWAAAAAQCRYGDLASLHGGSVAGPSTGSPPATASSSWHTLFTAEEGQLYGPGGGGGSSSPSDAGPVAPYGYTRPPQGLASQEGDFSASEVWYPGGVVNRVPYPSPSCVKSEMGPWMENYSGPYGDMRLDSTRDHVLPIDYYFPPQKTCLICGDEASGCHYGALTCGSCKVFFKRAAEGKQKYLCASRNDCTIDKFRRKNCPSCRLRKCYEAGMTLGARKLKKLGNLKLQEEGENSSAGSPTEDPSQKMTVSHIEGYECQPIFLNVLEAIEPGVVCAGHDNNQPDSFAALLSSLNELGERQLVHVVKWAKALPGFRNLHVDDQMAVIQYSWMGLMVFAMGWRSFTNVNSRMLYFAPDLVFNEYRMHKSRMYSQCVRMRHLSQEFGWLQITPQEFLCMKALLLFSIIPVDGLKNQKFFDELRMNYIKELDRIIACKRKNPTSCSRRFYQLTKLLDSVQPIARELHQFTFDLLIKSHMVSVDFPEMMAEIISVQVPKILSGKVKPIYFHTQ
How it was run: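 L929 cells in phenol red-free, charcoal-stripped serum medium transduced with AdEasy+rAR (moi 1:500) and exposed 48 h at 37 °C to compound alone (agonist mode) or with R1881 (antagonist mode; 2.5 nM as the 2.5× dilution).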

[2] = system: testosterone-enhanced ventral prostate and seminal vesicle weights in castrated male Sprague Dawley rats; assay: Ventral Prostate and Seminal Vesicle Weight In Vivo Assay; design: species or system rat; conditions: immature castrated rats; once daily for five days, usually orally at 40 mg/kg, with testosterone propionate 2 mg/kg s.c.
How it was run: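 Immature (~50 g) castrated Sprague Dawley rats dosed once daily for five days with compound (usually oral, 40 mg/kg, cyclodextrin or methylcellulose vehicle) plus testosterone propionate 2 mg/kg s.c. Wet ventral prostate and seminal vesicle weights taken on day six; activity judged by prostate weight or body-weight-adjusted % inhibition.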

[3] = target: T2, androgen receptor (rat ventral prostate cytosol) (Rattus norvegicus, UniProt P15207); assay: Androgen Receptor Binding Using Rat Ventral Prostate Cytosol
T2 construct: from tissue; host or cells: ventral prostate of castrated male Sprague Dawley or Wistar rats, cytosol
T2 sequence (P15207 1-902): T1 sequence (P15207 1-902)
Experimental: The assay was run on a 96 well plate with each well filled with a total reaction volume 150 μL, of a solution containing 5 pmol androgen receptor LBD (Panvera) or 30 μL of freshly prepared rat cytosol, 0.5 nM [^3H] […] (TED buffer contains 10 mM Tris.HCl pH 7.4, 1 mM sodium molybdate, 1.5 mM EDTA, 1 mM DTT and 10% (v/v) glycerol.)
On day one, the solution containing receptor, tracer and TED buffer was distributed into a 96 well plate. Diluted test compound or control vehicle was then added to individual wells and the plate incubated at 4° C. overnight.
On day two, to each well was then added 20 μL human γ-globulin (ICN 823102), prepared at 25 mg/ml in TE pH 8.0, and 55 μL 40% polyethylene glycol 8000 (JT Baker U222-08), prepared in TE pH 8.0. The plate was incubated at 4° C. for 60 minutes. During incubation, the harvester was rinsed with 10% PEG 8000, prepared in TE pH 8.0, and a GF/C Unifilter-96 was pre-wet with 10% PEG. The binding reaction was filtered, the retentate was washed three times with 10% PEG and dried under vacuum for a couple of minutes, then dried at 50° C. for 5 min and the plate was bottom sealed. Next, 25 μL of Microscint-20 (Packard) was added to the filter wells and the plate was top sealed. The plate wells were then counted on a TopCount (Packard).
Rat Prostate Cytosol Preparation:
Male Sprague Dawley or Wistar rats (Charles River, 200-300 g) were used for each preparation. The day before preparing the cytosol, the rats were castrated using standard surgical procedures.
The rats were euthanized by carbon dioxide asphyxiation. The rat prostates were quickly removed and placed on ice in pre-chilled, pre-weighed 50 mL plastic tubes. No more than five prostates were placed into one tube. The tubes were then weighed and the prostate tissue wet weights calculated.
To the chilled prostate tissue was then added […] of chilled homogenization buffer. The homogenization buffer was freshly prepared by mixing 10 mM Tris.HCl, pH 7.4, 1 mM sodium molybdate, 1.5 mM EDTA, 1 mM dithiothreitol, 10% (v/v) glycerol and 1% protease inhibitor cocktail (Sigma P 8340).
The prostate tissue was homogenized in a cold room using a pre-chilled Polytron PT3000 homogenizer (Brinkmann). Homogenization was performed at a speed setting of 20, three times for 10 sec bursts. The tubes containing the prostate tissue was kept on ice while homogenizing. The homogenate was allowed to rest on ice for 20 sec between bursts.
The homogenate was then placed into pre-chilled 3 mL polycarbonate ultracentrifuge tubes and centrifuged in the TLA-100 rotor of a TL-100 ultracentrifuge for 12 min at 100,000 rpm at 4° C. The resulting supernatant was stored in 1 mL aliquots at −80° C. until needed.
Binding to the androgen receptor was determined according to the protocol described in Example 86 using the above prepared rat cytosol.
% Inhibition was determined by testing dilutions of the test compound (usually duplicates of 10 μM) in the binding assay. Counts per well were measured and percents of inhibition determined. […] Counts per well were measured and IC50s determined by linear regression.

[4] = target: T3, androgen receptor (adenovirus AdEasy+rAR in COS-7 cells) (Rattus norvegicus, UniProt P15207); assay: COS-7 Whole-Cell Androgen Receptor Binding Assay, Adenovirus Transduction; conditions: COS binding
T3 construct: expressed in transfected cells
T3 sequence (P15207 1-902): T1 sequence (P15207 1-902)

[5] = rat cytosol, concentration 1000 nM
[6] = rat cytosol, concentration 1000 nM, 1 µM

Row | SMILES | % Activity ([1]; 3000 nM) [%] | active / inactive (inhibition of testosterone-enhanced prostate weight) [2] | inhibition at 1 µM [3, 5] [%] | IC50 ([3]; rat cytosol, read-out: IC50) [nM] | inhibition at 3 µM ([4]; 3000 nM unless otherwise noted) [%] | further results
1 | CN(C)c1ccc(S(=O)(=O)CC(C)(O)c2cc3cc(Cl)c(C(F)(F)F)cc3[nH]2)cc1 (racemic) [compound 126] | −5 | inactive |  |  |  | % Inhibition ([3]; rat cytosol, concentration 3000 nM): −30%
2 | CC(O)(c1cc2cc([N+](=O)[O-])c(C(F)(F)F)cc2[nH]1)S(=O)(=O)c1ccc(Cl)c(Cl)c1 (racemic) [compound 255] |  |  |  |  |  | % Inhibition [3, 5]: 26%
3 | CC(C)(C)c1ccc(CN2CCC(O)(c3cc4cc(Cl)c(C(F)(F)F)cc4[nH]3)CC2)cc1 [Compound #32] |  |  | 34 | 43000 |  | 
4 | OC1(c2cc3cc(Cl)c(C(F)(F)F)cc3[nH]2)CCN(Cc2ccc(C(F)(F)F)cc2)CC1 [Compound #33] |  |  | 11 | 29000 |  | 
5 | Cc1ccc(CN2CCC(O)(c3cc4cc([N+](=O)[O-])c(C(F)(F)F)cc4[nH]3)CC2)cc1 [Compound #42] |  |  |  | 7100 |  | % Inhibition ([3]; 1 µM): 23%
6 | CS(=O)(=O)n1c(C2(O)CCN(C(=O)c3ccc(Cl)cc3)CC2)cc2cc(Cl)c(C(F)(F)F)cc21 [compound 24] |  |  |  |  |  | % Inhibition [3, 5]: 2%
7 | Cc1ccc(CN2CCC(O)(c3cc4cc([N+](=O)[O-])c(C(F)(F)F)cc4[nH]3)CC2)cc1 [compound 27] |  |  |  | 3100 |  | 
8 | OC1(c2cc3cc(Cl)c(C(F)(F)F)cc3[nH]2)CCN(Cc2ccc(F)cc2)CC1 [compound 28] |  |  | -3.4 | 7000 |  | 
9 | COc1cccc(CN2CCC(O)(c3cc4cc(Cl)c(C(F)(F)F)cc4[nH]3)CC2)c1 [compound 29] |  |  | -1.8 | 4700 |  | 
10 | Cc1ccc(CN2CCC(O)(c3cc4cc(Cl)c(C(F)(F)F)cc4[nH]3)CC2)cc1 [compound 30] |  |  | -7.7 | 4100 |  | 
11 | OC1(c2cc3cc(Cl)c(C(F)(F)F)cc3[nH]2)CCN(Cc2ccc(Cl)cc2)CC1 [compound 31] |  |  | 20 | 4050 |  | 
12 | CS(=O)(=O)c1ccc(CN2CCC(O)(c3cc4cc(Cl)c(C(F)(F)F)cc4[nH]3)CC2)cc1 [compound 34] |  |  | 18 | 5700 |  | 
13 | COc1ccc(CN2CCC(O)(c3cc4cc(Cl)c(C(F)(F)F)cc4[nH]3)CC2)cc1 [compound 35] |  |  | -19 | 4200 |  | 
14 | OC1(c2cc3cc(Cl)c(C(F)(F)F)cc3[nH]2)CCN(Cc2ccc(Cl)c(Cl)c2)CC1 [compound 36] |  |  | -34 |  |  | IC50 ([3]; IC50 (nM)): > 100000 nM
15 | COc1cccc(CN2CCC(O)(c3cc4cc([N+](=O)[O-])c(C(F)(F)F)cc4[nH]3)CC2)c1 [compound 38] |  |  |  | 8800 |  | % Inhibition [3, 6]: 16%
16 | COc1cccc(CN2CCC(O)(c3cc4cc([N+](=O)[O-])c(C(F)(F)F)cc4[nH]3)CC2)c1 [compound 39] |  |  |  | > 6100 |  | % Inhibition [3, 6]: 6%
17 | O=[N+]([O-])c1cc2cc(C3(O)CCN(Cc4ccc(Cl)cc4)CC3)[nH]c2cc1C(F)(F)F [compound 40] |  |  |  | 3800 |  | % Inhibition [3, 6]: −2.5%
18 | O=[N+]([O-])c1cc2cc(C3(O)CCN(Cc4ccc(Cl)cc4)CC3)[nH]c2cc1C(F)(F)F [compound 41] |  |  |  | 2300 |  | % Inhibition [3, 6]: 20%
19 | O=[N+]([O-])c1cc2cc(C3(O)CCN(Cc4ccc(Cl)c(Cl)c4)CC3)[nH]c2cc1C(F)(F)F [compound 43] |  |  | 5.8 | 9100 |  | 
20 | CCC(O)(CSCC(F)(F)F)c1cc2cc(F)c(C(F)(F)F)cc2[nH]1 (centres unmarked) [compound 194] | 2 | inactive |  |  | 80 | 
21 | CC(O)(CSCc1cccs1)c1cc2cc([N+](=O)[O-])c(C(F)(F)F)cc2[nH]1 (centres unmarked) [compound 197] | 2 | inactive |  |  | 86 | 
22 | CCC(O)(CS(=O)(=O)CC(F)(F)F)c1[nH]c2cc(C(F)(F)F)c([N+](=O)[O-])cc2c1Cl (centres unmarked) [compound 199] | 2 | inactive |  |  | 82 | 
23 | CCCCSCC(C)(O)c1cc2cc([N+](=O)[O-])c(C(F)(F)F)cc2[nH]1 (centres unmarked) [compound 200] | 1 | inactive |  |  | 97 | 
24 | CC(O)(CSCC(F)(F)F)c1cc2cc([N+](=O)[O-])c(C(F)(F)F)cc2[nH]1 (centres unmarked) [compound 201] |  | inactive |  |  |  | % Activity ([1]; 3000 nM, 3 µM): 2%; % Inhibition ([4]; 3000 nM unless otherwise noted): 86%
25 | CCSCC(C)(O)c1cc2cc(C#N)c(C(F)(F)F)cc2[nH]1 (centres unmarked) [compound 209] |  | active |  |  | 61 | % Activity ([1]; @ 8000 nM): −3 @ 8000 nM %
26 | CCSCC(C)(O)c1cc2cc([N+](=O)[O-])cc(C(F)(F)F)c2[nH]1 (centres unmarked) [compound 212] | −3 | active |  |  | 86 | 
27 | CC(O)(CSCC(F)(F)F)c1[nH]c2cc(C(F)(F)F)c([N+](=O)[O-])cc2c1I (centres unmarked) [compound 213] |  | active |  |  | 71 | % Activity ([1]; @ 8000 nM): −1 @ 8000 nM %
28 | CCSCC(C)(OC)c1cc2cc(C#N)c(C(F)(F)F)cc2n1C (centres unmarked) [compound 235] | 3 | inactive |  |  | 78 | 
29 | CCSCC(C)(O)c1cc2cc(C#N)c(C(F)(F)F)cc2n1C (centres unmarked) [compound 236] | 2 | active |  |  | 83 | 
30 | CC[S+]([O-])CC(C)(O)c1[nH]c2cc(C(F)(F)F)c(C#N)cc2c1C (centres unmarked) [compound 252] | 1 | active |  |  | 68 | inhibition at 3 µM ([1]; L929, L929 antagonist testing with R1881, 3000 nM): 65%; IC50 ([4]; read-out: IC50): > 3 µM
